Source: PMC4595804, “A strategy to discover decoy chemokine ligands with an anti-inflammatory activity” (Scientific Reports, 2015)

Tests used:
[1] = target: T1, CCL17 N78V (Homo sapiens, UniProt Q92583, N78V); experiment: Calcium responses induced by chemokine mutant, neutraligand protocol; type: cell-based; settings: 10 μM compound, 5 nM chemokine; remaining response
T1 construct: codes for the mature CCL17 or CCL22 with an N-terminal thioredoxin-hexahistidin (TRX- (His)6) tag; TRX-(His)6 (N, cleaved yes); made in house; host or cells: E. coli BL21 (DE3)
T1 sequence (Q92583 24-94 N78V): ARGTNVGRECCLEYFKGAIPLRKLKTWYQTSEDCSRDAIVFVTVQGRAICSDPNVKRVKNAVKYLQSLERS
Experimental: (§1) Dye loaded cells were placed in the FlexStation 3 (Molecular Devices). […] For the primary screening, the ligands (50μl of chemokine mixed with DMSO or test compounds) were added to the cells at 40 s, followed by digitonin addition (50μl) at 100 s to the cells. Molecules were screened at a final concentration of 2μg/ml with 5 nM CCL17 or CCL22. […] The calcium response values (height of peak response over baseline) were determined. Hits were selected by comparing the response amplitude at the time of the chemokine addition ± test compound. The Z’ factor[29] was calculated according to the following equation: Z’ = 1-(3SD+ + 3SD−)/|Ave+ − Ave−|, where SD+ and Ave+ are respectively the standard deviation and the mean value of the positive controls (chemokine + DMSO), while SD− and Ave− are respectively the standard deviation and the mean value of the negative controls (HEPES-BSA (0.1%) mixed with DMSO, or cells mixed with C-021). Hit molecules were confirmed by performing concentration-response curves and their half maximal inhibitory concentration (IC50) values were calculated using the Kaleidagraph software.
(§2) and the denaturated chemokines (disulfite bonds reduced by β-mercaptoethanol). The
(§3) chemokine activity was then, tested in the in vitro assays.
(§4) On-column refolding and purification of CCL5, CXCL8, CXCL10, CXCL11, CXCL12, CCL17
(§5) performed in a similar fashion as for CCL17 and CCL22. […]

[2] = target: T2, CCL17 R80W (Homo sapiens, UniProt Q92583, R80W); experiment: as above; type: cell-based; settings: 10 μM compound, 5 nM chemokine; remaining response
T2 construct: codes for the mature CCL17 or CCL22 with an N-terminal thioredoxin-hexahistidin (TRX- (His)6) tag; TRX-(His)6 (N, cleaved yes); made in house; host or cells: E. coli BL21 (DE3)
T2 sequence (Q92583 24-94 R80W): as the sequence (Q92583 24-94 N78V) above, with V55N, R57W counted along it
Experimental: as §1, §2, §3, §4, §5

[3] = target: T3, CCL17 S74A (Homo sapiens, UniProt Q92583, S74A); experiment: as above; type: cell-based; settings: 10 μM compound, 5 nM chemokine; remaining response
T3 construct: codes for the mature CCL17 or CCL22 with an N-terminal thioredoxin-hexahistidin (TRX- (His)6) tag; TRX-(His)6 (N, cleaved yes); made in house; host or cells: E. coli BL21 (DE3)
T3 sequence (Q92583 24-94 S74A): as the sequence (Q92583 24-94 N78V) above, with S51A, V55N counted along it
Experimental: as §1, §2, §3, §4, §5

[4] = target: T4, CCR4 (Homo sapiens, UniProt P51679); experiment: EGFP-CCR4 receptor surface level / endocytosis on EGFP-CCR4+ HEK cells; type: cell-based; settings: without chemokine, data not shown
T4 construct: signal peptide fused to EGFP (N); expressed in transfected cells; host or cells: HEK-293
T4 sequence (P51679 1-360): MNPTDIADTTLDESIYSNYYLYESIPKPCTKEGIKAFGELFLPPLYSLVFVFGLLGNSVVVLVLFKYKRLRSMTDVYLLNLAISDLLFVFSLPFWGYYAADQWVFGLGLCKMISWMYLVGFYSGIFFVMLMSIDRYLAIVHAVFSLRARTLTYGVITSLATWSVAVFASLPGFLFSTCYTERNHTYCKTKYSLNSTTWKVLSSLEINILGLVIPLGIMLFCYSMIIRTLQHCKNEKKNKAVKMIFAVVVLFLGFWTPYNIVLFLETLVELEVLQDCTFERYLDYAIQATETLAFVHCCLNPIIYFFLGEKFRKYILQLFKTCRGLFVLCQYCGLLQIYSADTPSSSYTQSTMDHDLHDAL
Experimental: CCR4 levels were evaluated by flow cytometry (FACSCalibur, BD biosciences) using cell surface labeling of EGFP with monoclonal mouse anti-GFP (Roche Applied Science; 1:100 dilution) as primary antibody and R-phycoerythrin conjugated AffiniPure F (ab’)2 fragment goat anti-mouse (Immunotech; 1/100) as secondary antibody.

[5] = test system: CCR4+ HUT78 cells; experiment: HUT78 chemotaxis: compounds alone or preincubated with the cells (antagonist protocol); type: cell-based, human; settings: for chemotactic activity of the compound by itself: HUT78 cells, no chemokine; for inhibition of CCR4+ HUT78 T cell migration, compound preincubated with the cells: receptor antagonist protocol, 1 μM, 3 nM CCL17 or CCL22
Experimental: Cell migration was carried out in RPMI1640-BSA (0.1%) using Transwell 96-well plates (Corning Costar, 5 μm pore size, polycarbonate membranes). […] Lower wells contained the same medium diluted with DMSO or chemokine (3 nM CCL17 or CCL22).
0.1% BSA using Transwell 96-well plates (Corning Costar, 5µm pore size, polycarbonate […]
the same medium diluted with DMSO or chemokine (3nM CCL17 or CCL22). In neutraligand inhibition studies, prior to their use, CCL17 (a) and CCL22 (b) were pre-incubated with […]
in the lower compartment. For characterization of the antagonist properties, the compounds were pre-incubated with the cells in the upper compartment. C-021 (1µM, stripped bars), the CCR4 receptor antagonist, was used as a control in both incubation protocols. Results are expressed as the percentage of cells that migrated to the lower chamber. Data represent the means±SD. Experiments were performed in triplicate.
(1 picture or pasted object on this page, not shown here)

[6] = target: T5, COX1 (Homo sapiens, UniProt P23219); experiment: COX1 mediated PGE2 release in primary monocytes; type: cell-based; settings: monocytes + arachidonic acid
T5 construct: endogenous in cells; host or cells: primary human monocytes
T5 sequence (P23219 24-599): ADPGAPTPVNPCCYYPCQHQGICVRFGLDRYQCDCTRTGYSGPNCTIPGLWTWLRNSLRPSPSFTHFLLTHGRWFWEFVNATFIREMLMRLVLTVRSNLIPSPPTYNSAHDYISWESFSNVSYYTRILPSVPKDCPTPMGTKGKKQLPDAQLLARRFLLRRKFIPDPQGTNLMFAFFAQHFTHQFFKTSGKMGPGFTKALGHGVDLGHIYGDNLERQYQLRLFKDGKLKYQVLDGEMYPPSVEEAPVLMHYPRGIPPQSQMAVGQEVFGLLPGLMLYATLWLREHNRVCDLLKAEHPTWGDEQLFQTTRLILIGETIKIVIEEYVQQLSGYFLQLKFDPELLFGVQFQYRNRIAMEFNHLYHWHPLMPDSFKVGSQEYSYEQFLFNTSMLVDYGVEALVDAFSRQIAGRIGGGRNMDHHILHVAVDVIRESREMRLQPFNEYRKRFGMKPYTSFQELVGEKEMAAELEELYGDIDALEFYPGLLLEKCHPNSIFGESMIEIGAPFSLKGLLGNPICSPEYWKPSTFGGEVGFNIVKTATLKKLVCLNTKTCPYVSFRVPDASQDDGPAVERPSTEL
Experimental: the wound closure was determined as the difference between wound width at times 0 and 72h. This experiment was repeated three times.
Human primary monocytes were isolated from buffy coats of healthy human blood donors and seeded in 24-well plates (500,000 cells/ml in 1ml) for COX-1/2 activity or 96-well plates for cell viability experiments.
Cells were seeded in 96 well plates (5,000 cells/well in 200µl) for cytotoxicity testing (Alamar […]
doses). After 24h, cytotoxicity was evaluated in the wells using the Alamar Blue method. NaF (250µg/ml) was used as a control in this experiment.
Cyclooxygenase (COX) activity
COX1 mediated prostaglandin E2 (PGE2) release. Monocytes were treated with arachidonic […]
were then collected for the determination of PGE2 by enzyme immunoassay (EIA) […]
COX2 mediated prostaglandin E2 (PGE2) release. Monocytes were incubated with LPS (10U/ml) for 24h to induce COX2 protein synthesis. After renewal of medium (serum free), […]
before AA treatment. The activity of COX2 was determined by measuring PGE2 (Cayman) in the supernatants by EIA. Aspirin (10µM) and diclofenac (10µM) were used as control […]
NaF (250µg/ml) was used as a control (relative light unit, r.l.u). (c) Monocytes were treated […]
GPN136 (grey bars). The activity of COX1 was determined by measuring prostaglandin E2 (PGE2). […]
of COX2 was determined by measuring PGE2. […]

SMILES | calcium response induced by CCL17 N78V preincubated with compound [1] | calcium response induced by CCL17 R80W preincubated with compound [2] | calcium response induced by CCL17 S74A preincubated with compound [3] | effect on CCR4 receptor surface level on its own [4] | chemotactic activity of the compound by itself [5] | inhibition of CCR4+ HUT78 T cell migration, compound preincubated with the cells [5] | doses at which COX1 activity is inhibited [6] [µM] | effect on COX1 activity (PGE2) ([6]; 100 µM)
O=C(OCC(O)CO)c1ccccc1O (centres unmarked) [GPN136, 2,3-dihydroxypropyl 2-hydroxybenzoate] | totally ineffective | totally ineffective | totally ineffective | Neither GPN279 nor GPN136 did alter | devoid of chemotactic activity | no ability to inhibit | > 100 | 
CC(C)=CCn1cnc2c1c(=O)n(C)c(=O)n2C [GPN279, 1,3-dimethyl-7-(3-methylbut-2-enyl)-1H-purine-2,6(3H, 7H)-dione] | 75.0 ± 6.0% | 50.0 ± 11.0% | no longer acted as a neutralizing molecule | Neither GPN279 nor GPN136 did alter | devoid of chemotactic activity | no ability to inhibit |  | no effect
